{
  "source": "patent US20230025316A1",
  "about": "“OLAPARIB PHARMACEUTICAL COMPOSITION, FORMULATION THEREOF, PREPARATION METHOD THEREOF AND USE THEREOF” (Sinotherapeutics Inc., priority 2020, published 2023)",
  "key": {"[1]": {"assay": "Apparent solubility in pH 6.8 phosphate buffer (shaker, HPLC)", "format": "physicochemical", "protocol": "3. Apparent solubility: excess amount of Olaparib pharmaceutical composition was weighed into a container, about ⅔ of the volume of the container with pH 6.8 phosphate buffer was added, and the container was placed in a shaker at 37° C. for 2 h. After filtering the contents of the container with a 0.45 μm filter membrane, the filtrate was collected, diluted with an appropriate amount of acetonitrile, mixed by vortex, and the concentration of Olaparib was determined by HPLC analysis."}, "[2]": {"assay": "Dissolution, USP Method 1 (Basket Method), pH 6.8 phosphate buffer", "format": "physicochemical", "settings": "900 mL, 100 rpm, 37.5° C., 150 mg Olaparib/cup", "protocol": "5. Dissolution sample analysis: the same as the HPLC analysis method described in the above-mentioned apparent solubility assay.\nThe main absorption site of drugs in the human body is the small intestine, and the pH value in the small intestine is about 6.8. According to the method described above, the dissolution of each Olaparib-cyclodextrin pharmaceutical composition in pH 6.8 phosphate buffer was determined, and the results were shown in Table 1-4."}},
  "data": [
    {"compound": "O=C(c1cc(Cc2n[nH]c(=O)c3ccccc23)ccc1F)N1CCN(C(=O)C2CC2)CC1", "note": "[API, 4-[(3-{[4(cyclopropylcarbonyl)piperazin-1-yl]carbonyl}-4-fluorophenyl)methyl]phthalazin-1(2H)-one]", "values": [
      {"measurement": "solubility at 2 h", "setting": "[1]; aqueous buffer, thermodynamic from solid, pH 6.8 phosphate buffer, 37° C., 2 h", "value": "< 100", "unit": "µg/mL"},
      {"measurement": "Solubility ratio (Composition/API)", "setting": "[1]; pH 6.8 buffer, apparent solubility relative to API", "value": 1},
      {"measurement": "Cumulative dissolution in pH 6.8 phosphate buffer", "setting": "[2]; 15 min", "value": 12.2, "unit": "%"},
      {"measurement": "Cumulative dissolution in pH 6.8 phosphate buffer", "setting": "[2]; 30 min", "value": 21.4, "unit": "%"},
      {"measurement": "Cumulative dissolution in pH 6.8 phosphate buffer", "setting": "[2]; 45 min", "value": 30.2, "unit": "%"},
      {"measurement": "Cumulative dissolution in pH 6.8 phosphate buffer", "setting": "[2]; 60 min", "value": 37.5, "unit": "%"},
      {"measurement": "Cumulative dissolution in pH 6.8 phosphate buffer", "setting": "[2]; 90 min", "value": 39.8, "unit": "%"}
    ]}
  ]
}
